Data on four molecules can be found in PMC3914206.

Assay type in all cases: binding
Holding throughout (details): Compound Concentration 10 µM

Assay [1] addresses T1, panel of 442 kinases (Homo sapiens, UniProt P07333).
T1 construct: purchased KINOMEscan
An excerpt:
(§1) We assessed the selectivity of members of this scaffold using the KINOMEscan methodology across a near comprehensive panel of 442 kinases [[18,27]].

Assay [2] concerns the target T2, panel of 442 kinases (Homo sapiens, UniProt P19525).
T2 construct: purchased KINOMEscan
Source text: as §1

The target in assay [3] is T3, panel of 442 kinases (Homo sapiens, UniProt P16591).
T3 construct: purchased KINOMEscan
T3 sequence (P16591 whole entry): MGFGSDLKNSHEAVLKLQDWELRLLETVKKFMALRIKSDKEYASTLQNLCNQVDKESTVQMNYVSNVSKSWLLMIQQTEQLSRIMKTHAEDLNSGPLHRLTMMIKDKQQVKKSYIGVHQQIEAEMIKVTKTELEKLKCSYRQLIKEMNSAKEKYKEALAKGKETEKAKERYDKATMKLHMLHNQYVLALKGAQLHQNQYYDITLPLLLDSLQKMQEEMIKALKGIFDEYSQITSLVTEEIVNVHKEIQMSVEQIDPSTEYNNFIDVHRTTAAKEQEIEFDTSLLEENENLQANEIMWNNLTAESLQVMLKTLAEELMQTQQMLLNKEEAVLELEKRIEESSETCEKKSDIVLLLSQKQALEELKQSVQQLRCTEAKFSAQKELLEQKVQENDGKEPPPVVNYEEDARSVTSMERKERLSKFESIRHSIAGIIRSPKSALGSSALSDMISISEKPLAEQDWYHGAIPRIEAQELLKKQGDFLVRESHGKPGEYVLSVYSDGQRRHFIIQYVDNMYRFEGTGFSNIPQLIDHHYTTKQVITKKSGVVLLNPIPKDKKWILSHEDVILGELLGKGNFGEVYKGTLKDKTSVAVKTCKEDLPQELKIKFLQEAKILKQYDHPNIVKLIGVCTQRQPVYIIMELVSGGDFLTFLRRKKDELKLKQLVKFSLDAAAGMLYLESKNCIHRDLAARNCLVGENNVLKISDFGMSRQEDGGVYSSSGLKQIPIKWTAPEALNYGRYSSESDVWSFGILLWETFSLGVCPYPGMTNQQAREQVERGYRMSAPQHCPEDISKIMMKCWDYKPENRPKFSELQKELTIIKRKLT
Source text: as §1

Assay [4] concerns the target T4, panel of 442 kinases (Homo sapiens, UniProt Q9HCP0).
T4 construct: purchased KINOMEscan
Source text: as §1

T4 sequence (Q9HCP0 whole entry): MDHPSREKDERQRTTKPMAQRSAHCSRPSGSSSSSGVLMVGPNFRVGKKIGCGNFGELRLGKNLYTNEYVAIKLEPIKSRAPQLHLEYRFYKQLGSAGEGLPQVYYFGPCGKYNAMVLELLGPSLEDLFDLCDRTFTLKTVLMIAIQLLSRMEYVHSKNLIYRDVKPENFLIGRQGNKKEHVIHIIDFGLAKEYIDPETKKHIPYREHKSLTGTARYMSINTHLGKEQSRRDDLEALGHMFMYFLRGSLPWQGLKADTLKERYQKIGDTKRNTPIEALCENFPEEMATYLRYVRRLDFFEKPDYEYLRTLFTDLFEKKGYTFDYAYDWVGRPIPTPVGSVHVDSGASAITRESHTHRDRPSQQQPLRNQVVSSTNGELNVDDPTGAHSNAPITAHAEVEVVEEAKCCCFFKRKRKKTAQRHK
T2 sequence (P19525 whole entry): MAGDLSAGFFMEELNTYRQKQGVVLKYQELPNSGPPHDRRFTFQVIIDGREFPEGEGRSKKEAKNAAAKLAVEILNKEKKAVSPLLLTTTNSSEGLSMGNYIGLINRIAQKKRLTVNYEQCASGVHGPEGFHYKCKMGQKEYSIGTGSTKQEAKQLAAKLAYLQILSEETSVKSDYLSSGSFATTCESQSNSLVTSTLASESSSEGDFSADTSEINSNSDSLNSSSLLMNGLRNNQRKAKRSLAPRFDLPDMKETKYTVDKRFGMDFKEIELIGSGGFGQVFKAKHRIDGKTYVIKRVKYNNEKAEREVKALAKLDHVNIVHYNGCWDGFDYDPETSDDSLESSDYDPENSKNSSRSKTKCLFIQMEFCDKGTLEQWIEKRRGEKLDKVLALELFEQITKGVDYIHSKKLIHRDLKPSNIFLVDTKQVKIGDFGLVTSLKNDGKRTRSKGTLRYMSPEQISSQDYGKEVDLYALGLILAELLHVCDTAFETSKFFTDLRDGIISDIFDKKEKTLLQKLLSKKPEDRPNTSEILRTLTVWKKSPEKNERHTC
T1 sequence (P07333 20-972): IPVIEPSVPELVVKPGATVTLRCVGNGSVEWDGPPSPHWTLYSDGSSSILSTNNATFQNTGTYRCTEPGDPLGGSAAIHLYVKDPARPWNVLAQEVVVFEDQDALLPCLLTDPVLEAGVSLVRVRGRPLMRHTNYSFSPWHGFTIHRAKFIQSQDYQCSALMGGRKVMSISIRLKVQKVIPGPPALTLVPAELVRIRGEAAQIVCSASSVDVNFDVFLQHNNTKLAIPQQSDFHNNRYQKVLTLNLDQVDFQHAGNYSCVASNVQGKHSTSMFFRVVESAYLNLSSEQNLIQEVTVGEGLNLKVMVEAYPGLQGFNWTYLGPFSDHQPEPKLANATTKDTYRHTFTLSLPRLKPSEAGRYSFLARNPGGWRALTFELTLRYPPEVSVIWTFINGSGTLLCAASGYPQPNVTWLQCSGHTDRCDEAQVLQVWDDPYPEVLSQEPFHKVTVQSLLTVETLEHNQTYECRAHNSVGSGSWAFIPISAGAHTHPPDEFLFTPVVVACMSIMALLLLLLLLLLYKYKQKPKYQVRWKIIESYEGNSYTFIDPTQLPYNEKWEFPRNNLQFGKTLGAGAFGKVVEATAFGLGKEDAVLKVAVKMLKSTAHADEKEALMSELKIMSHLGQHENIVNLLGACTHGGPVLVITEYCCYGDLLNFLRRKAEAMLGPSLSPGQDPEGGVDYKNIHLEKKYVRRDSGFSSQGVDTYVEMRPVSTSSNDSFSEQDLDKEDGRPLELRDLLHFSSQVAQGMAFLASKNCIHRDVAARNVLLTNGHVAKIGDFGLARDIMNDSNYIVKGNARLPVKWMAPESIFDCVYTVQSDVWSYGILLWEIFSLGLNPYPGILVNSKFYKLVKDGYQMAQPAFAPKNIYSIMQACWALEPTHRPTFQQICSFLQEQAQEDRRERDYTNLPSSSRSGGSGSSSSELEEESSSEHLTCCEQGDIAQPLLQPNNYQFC

For `COc1cc(C(=O)N2CCC(N3CCN(C)CC3)CC2)ccc1Nc1ncc2c(n1)N(C)c1ccccc1C(=O)N2C` [15 (LRRK2-IN-1)], the “KINOMEscan: CSF1R” value on panel of 442 kinases [1] came to 98. In addition, the “KINOMEscan: PRKR” value at panel of 442 kinases [2] is on record as 84. The “KINOMEscan: FER” value at panel of 442 kinases [3] is 51. Further, the “KINOMEscan: CSNK1G1” value on panel of 442 kinases [4] came to 100.

With `COc1cc(C(=O)N2CCC(N3CCN(C)CC3)CC2)ccc1Nc1ncc2c(n1)N1CCc3cccc(c31)C(=O)N2C` [Compound 24], the “KINOMEscan: CSF1R” value on panel of 442 kinases [1] worked out at 57. At panel of 442 kinases [2], the “KINOMEscan: PRKR” value came out at 33. Besides, on panel of 442 kinases [3], the “KINOMEscan: FER” value worked out at 64.

For the molecule `COc1cc(C(=O)N2CCC(N3CCN(C)CC3)CC2)ccc1Nc1ncc2c(n1)N(C1CCCC1)c1ccccc1C(=O)N2C` [Compound 25, 11-cyclopentyl-2-((2-methoxy-4-(4-(4-methylpiperazin-1-yl)piperidine-1-carbonyl)phenyl)amino)-5-methyl-5H-benzo[e]pyrimido[5,4-b][1,4]diazepin-6(11H)-one], at panel of 442 kinases [1], the “KINOMEscan: CSF1R” value amounted to 56. In addition, the “KINOMEscan: PRKR” value on panel of 442 kinases [2] was 71. At panel of 442 kinases [3], the “KINOMEscan: FER” value is 38. Besides, the “KINOMEscan: CSNK1G1” value on panel of 442 kinases [4] worked out at 73.

Turning to `CCOc1cc(C(=O)N2CCC(N3CCN(C)CC3)CC2)ccc1Nc1ncc2c(n1)N(C1CCCC1)c1ccccc1C(=O)N2C` [Compound 26], the “KINOMEscan: CSF1R” value on panel of 442 kinases [1] worked out at 100. Besides, at panel of 442 kinases [2], the “KINOMEscan: PRKR” value is recorded as 97. In addition, the “KINOMEscan: FER” value at panel of 442 kinases [3] turned out to be 96. Further, the “KINOMEscan: CSNK1G1” value on panel of 442 kinases [4] is 98.
